Reference: publication PMC6934184, “Selective DNA-PKcs inhibition extends the therapeutic index of localized radiotherapy and chemotherapy” (The Journal of Clinical Investigation, 2019)

Target: T1, SGK (SGK1) (Homo sapiens, UniProt O00141)
T1 construct: purchased Thermo Fisher Scientific (Life Technologies) SelectScreen
Test: SelectScreen Z'LYTE
Format: biochemical
How it was run: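 NU5455 was profiled across the SelectScreen Broad panel of kinase activity and binding assays. Z'LYTE reactions such as CSF1R ran at apparent Km ATP, while the Adapta CAMK1 assay used ATP listed as 10. Values are given as percent.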

T1 sequence (O00141 whole entry): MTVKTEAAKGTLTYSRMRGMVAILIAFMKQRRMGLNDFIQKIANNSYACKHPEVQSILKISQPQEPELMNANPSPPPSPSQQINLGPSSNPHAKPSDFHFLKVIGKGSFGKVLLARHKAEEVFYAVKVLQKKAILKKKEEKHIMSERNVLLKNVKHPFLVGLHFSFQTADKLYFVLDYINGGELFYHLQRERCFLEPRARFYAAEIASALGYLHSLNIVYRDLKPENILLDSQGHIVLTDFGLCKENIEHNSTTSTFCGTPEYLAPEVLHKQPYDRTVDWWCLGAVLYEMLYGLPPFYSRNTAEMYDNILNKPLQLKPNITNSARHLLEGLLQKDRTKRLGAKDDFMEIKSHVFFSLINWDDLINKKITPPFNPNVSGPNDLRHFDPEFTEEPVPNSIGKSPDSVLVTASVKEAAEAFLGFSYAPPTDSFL

CN(C(=O)CN1CCOCC1)c1ccc2sc3c(-c4cccc5c(=O)cc(N6CC7CCC(C6)O7)oc45)cccc3c2c1 [NU5455]
inhibition at 1 µM: 8.5%
